Measurements: US20250034136A1 (Nimbus Wadjet, Inc., priority 2023, published 2025)

Legend:
[1] = target: WRN (BV08), human Werner helicase (Uniprot Q14191, amino acids 517-1235 with L1074F point mutation) (Homo sapiens (Human), UniProt Q14191, L1074F); test: WRN (BV08) ADP-Glo assay; assay type: biochemical; conditions: class symbols A-E, read-out: ADP-Glo_hWRN_IC50
[2] = tested on: p21 induction in HCT116 cells; test: p21 induction in HCT116 cells; assay type: cell-based; conditions: Homo sapiens, HCT-116, 24 h, HCT116 cells, 24 h compound incubation; read-out: P21_EC50
In short: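 EC50 from non-linear curve fit of p21 immunofluorescence (800 nm), with GAPDH (700 nm) read alongside. DMSO and a reference WRN inhibitor served as low and high controls. Cells (2,000/well) got 11 compound concentrations in duplicate for 24 h at 37 °C.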

Sequence of WRN (BV08), human Werner helicase (Uniprot Q14191, amino acids 517-1235 with L1074F point mutation) (Q14191 other isoform, or with tags, fused parts or gaps L1074F (already in the parent)): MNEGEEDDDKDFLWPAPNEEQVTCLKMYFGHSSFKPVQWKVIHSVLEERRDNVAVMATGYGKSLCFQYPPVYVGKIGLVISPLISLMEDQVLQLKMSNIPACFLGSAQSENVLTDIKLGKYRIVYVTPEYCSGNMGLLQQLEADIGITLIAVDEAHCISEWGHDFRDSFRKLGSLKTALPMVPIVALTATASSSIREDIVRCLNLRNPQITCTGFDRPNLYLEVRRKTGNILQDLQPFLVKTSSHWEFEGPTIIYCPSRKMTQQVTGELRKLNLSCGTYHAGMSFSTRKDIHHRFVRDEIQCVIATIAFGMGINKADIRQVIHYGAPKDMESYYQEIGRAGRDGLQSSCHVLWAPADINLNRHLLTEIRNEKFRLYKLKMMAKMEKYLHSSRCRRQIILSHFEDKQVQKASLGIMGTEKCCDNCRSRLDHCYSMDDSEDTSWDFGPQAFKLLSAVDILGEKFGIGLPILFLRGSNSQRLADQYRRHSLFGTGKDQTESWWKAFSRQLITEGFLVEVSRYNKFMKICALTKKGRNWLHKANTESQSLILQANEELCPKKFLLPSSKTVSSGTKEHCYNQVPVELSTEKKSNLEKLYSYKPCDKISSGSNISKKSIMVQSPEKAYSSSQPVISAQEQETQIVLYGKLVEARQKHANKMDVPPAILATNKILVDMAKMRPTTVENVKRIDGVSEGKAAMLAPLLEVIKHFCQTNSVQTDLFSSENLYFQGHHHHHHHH

Structure (SMILES) | IC50 [1] | EC50 [2]
CCc1c(N2CCN(C(=O)c3ncc4c(c3O)OCC4)CC2)c(=O)c2nc(N(C)C3CC3)cnc2n1CC(=O)Nc1ccc(C(F)(F)F)cc1Cl [I-203, N-[2-chloro-4-(trifluoromethyl)phenyl]-2-{2-[cyclopropyl(methyl)amino]-6-ethyl-7-(4-{7-hydroxy-2H,3H-furo[3,2-c]pyridine-6-carbonyl}piperazin-1-yl)-8-oxo-5H,8H-pyrido[2,3-b]pyrazin-5-yl}acetamide] | ≤ 0.005 µM | 0.5 to 2 µM
CCc1c(N2CCN(C(=O)c3c(OC)ncc(C)c3O)CC2)c(=O)c2nc(N(C)C)cnc2n1CC(=O)Nc1ccc(C(F)(F)F)cc1Cl [I-204, N-[2-chloro-4-(trifluoromethyl)phenyl]-2-[2-(dimethylamino)-6-ethyl-7-[4-(4-hydroxy-2-methoxy-5-methylpyridine-3-carbonyl)piperazin-1-yl]-8-oxo-5H,8H-pyrido[2,3-b]pyrazin-5-yl]acetamide] | 0.005 to 0.05 µM | < 0.5 µM
CCc1c(N2CCN(C(=O)c3ncnc(C)c3O)CC2)c(=O)c2nc(N(C)C3(C)CC3)cnc2n1CC(=O)Nc1ccc(C(F)(F)F)cc1Cl [I-205, N-[2-chloro-4-(trifluoromethyl)phenyl]-2-{6-ethyl-7-[4-(5-hydroxy-6-methylpyrimidine-4-carbonyl)piperazin-1-yl]-2-[methyl(1-methylcyclopropyl)amino]-8-oxo-5H,8H-pyrido[2,3-b]pyrazin-5-yl}acetamide] | 0.005 to 0.05 µM | < 0.5 µM
CCc1c(N2C[C@H]3CC[C@@H](C2)N3C(=O)c2ncnc(C)c2O)c(=O)c2nc(N(C)C)cnc2n1CC(=O)Nc1ccc(C(F)(F)F)cc1Cl [I-206, N-[2-chloro-4-(trifluoromethyl)phenyl]-2-[2-(dimethylamino)-6-ethyl-7-[(1R,5S)-8-(5-hydroxy-6-methylpyrimidine-4-carbonyl)-3,8-diazabicyclo[3.2.1]octan-3-yl]-8-oxo-5H,8H-pyrido[2,3-b]pyrazin-5-yl]acetamide] | 0.005 to 0.05 µM | > 5 µM
CCc1c(N2CCN(C(=O)c3ncnc(C)c3O)CC2)c(=O)c2nc(N3CCC34COC4)cnc2n1CC(=O)Nc1ccc(C(F)(F)F)cc1Cl [I-207, N-[2-chloro-4-(trifluoromethyl)phenyl]-2-{6-ethyl-7-[4-(5-hydroxy-6-methylpyrimidine-4-carbonyl)piperazin-1-yl]-2-{6-oxa-1-azaspiro[3.3]heptan-1-yl}-8-oxo-5H,8H-pyrido[2,3-b]pyrazin-5-yl}acetamide] | 0.005 to 0.05 µM | 2 to 5 µM
CCc1c(N2CCN(C(=O)c3ncnc(C)c3O)[C@H]3CC[C@@H]32)c(=O)c2nc(N(C)C)cnc2n1CC(=O)Nc1ccc(OC(F)(F)F)cc1F [I-210, 2-[2-(dimethylamino)-6-ethyl-7-[(1S,6S)-5-(5-hydroxy-6-methylpyrimidine-4-carbonyl)-2,5-diazabicyclo[4.2.0]octan-2-yl]-8-oxo-5H,8H-pyrido[2,3-b]pyrazin-5-yl]-N-[2-fluoro-4-(trifluoromethoxy)phenyl]acetamide] | 0.005 to 0.05 µM | < 0.5 µM
[2H]C([2H])([2H])N(c1nc2c(=O)c(N3CCN(C(=O)c4ncnc(C)c4O)[C@H]4CC[C@@H]43)c(CC)n(CC(=O)Nc3ccc(C(F)(F)F)cc3F)c2nc1C)C([2H])([2H])[2H] [I-211] | 0.005 to 0.05 µM | < 0.5 µM
CCc1c(N2CCN(C(=O)c3nccc(F)c3O)CC2)c(=O)c2nc(N(C)C)cnc2n1CC(=O)Nc1ccc(C(F)(F)F)cc1Cl [I-212, N-[2-chloro-4-(trifluoromethyl)phenyl]-2-[2-(dimethylamino)-6-ethyl-7-[4-(4-fluoro-3-hydroxypyridine-2-carbonyl)piperazin-1-yl]-8-oxo-5H,8H-pyrido[2,3-b]pyrazin-5-yl]acetamide] | 0.005 to 0.05 µM | 0.5 to 2 µM
CCc1c(C2=CCN(C(=O)c3ncnc(C)c3O)CC2)c(=O)c2nc(N(C)C)cnc2n1CC(=O)Nc1ccc(C(F)(F)F)cc1Cl [I-213, N-[2-chloro-4-(trifluoromethyl)phenyl]-2-[2-(dimethylamino)-6-ethyl-7-[1-(5-hydroxy-6-methylpyrimidine-4-carbonyl)-1,2,3,6-tetrahydropyridin-4-yl]-8-oxo-5H,8H-pyrido[2,3-b]pyrazin-5-yl]acetamide] | 0.005 to 0.05 µM | 0.5 to 2 µM
[2H]C([2H])([2H])N(c1cnc2c(n1)c(=O)c(N1CCN(C(=O)c3ncnc(C)c3O)[C@H]3CC[C@@H]31)c(CC)n2CC(=O)Nc1ccc(C(F)(F)F)cc1F)C([2H])([2H])[2H] [I-214, 2-{2-[di(2H3)methylamino]-6-ethyl-7-[(1S,6S)-5-(5-hydroxy-6-methylpyrimidine-4-carbonyl)-2,5-diazabicyclo[4.2.0]octan-2-yl]-8-oxo-5H,8H-pyrido[2,3-b]pyrazin-5-yl}-N-[2-fluoro-4-(trifluoromethyl)phenyl]acetamide] | 0.005 to 0.05 µM | < 0.5 µM
CCc1c(N2CCN(C(=O)c3ncnc(C)c3O)[C@@H]3CCC[C@H]32)c(=O)c2nc(N(C)C)cnc2n1CC(=O)Nc1ccc(C(F)(F)F)cc1Cl [I-215, 2-{7-[(4aR,7aR)-4-(5-hydroxy-6-methylpyrimidine-4-carbonyl)-octahydro-1H-cyclopenta[b]pyrazin-1-yl]-2-(dimethylamino)-6-ethyl-8-oxo-5H,8H-pyrido[2,3-b]pyrazin-5-yl}-N-[2-chloro-4-(trifluoromethyl)phenyl]acetamide] | 0.1 to 0.5 µM | > 5 µM
CCc1c(N2CCN(C(=O)c3ncnc(C)c3O)C3(CCC3)C2)c(=O)c2nc(N(C)C)cnc2n1CC(=O)Nc1ccc(C(F)(F)F)cc1Cl [I-216, N-[2-chloro-4-(trifluoromethyl)phenyl]-2-[2-(dimethylamino)-6-ethyl-7-[5-(5-hydroxy-6-methylpyrimidine-4-carbonyl)-5,8-diazaspiro[3.5]nonan-8-yl]-8-oxo-5H,8H-pyrido[2,3-b]pyrazin-5-yl]acetamide] | 0.05 to 0.1 µM | > 5 µM
CCc1c(N2CCN(C(=O)c3ncnc(C)c3O)CC2)c(=O)c2nc(N(C)S(C)(=O)=O)cnc2n1CC(=O)Nc1ccc(C(F)(F)F)cc1Cl [I-217, N-[2-chloro-4-(trifluoromethyl)phenyl]-2-{6-ethyl-7-[4-(5-hydroxy-6-methylpyrimidine-4-carbonyl)piperazin-1-yl]-2-(N-methylmethanesulfonamido)-8-oxo-5H,8H-pyrido[2,3-b]pyrazin-5-yl}acetamide] | 0.1 to 0.5 µM | > 5 µM
CCc1c(N2CCN(C(=O)c3nccc(Cl)c3O)CC2)c(=O)c2nc(N(C)C)cnc2n1CC(=O)Nc1ccc(C(F)(F)F)cc1Cl [I-218, 2-{7-[4-(4-chloro-3-hydroxypyridine-2-carbonyl)piperazin-1-yl]-2-(dimethylamino)-6-ethyl-8-oxo-5H,8H-pyrido[2,3-b]pyrazin-5-yl}-N-[2-chloro-4-(trifluoromethyl)phenyl]acetamide] | ≤ 0.005 µM | 0.5 to 2 µM
CCc1c(C2CCN(C(=O)c3ncnc(C)c3O)CC2)c(=O)c2nc(N(C)C)cnc2n1CC(=O)Nc1ccc(C(F)(F)F)cc1Cl [I-221, N-[2-chloro-4-(trifluoromethyl)phenyl]-2-[2-(dimethylamino)-6-ethyl-7-[1-(5-hydroxy-6-methylpyrimidine-4-carbonyl)piperidin-4-yl]-8-oxo-5H,8H-pyrido[2,3-b]pyrazin-5-yl]acetamide] | 0.005 to 0.05 µM | > 5 µM
